We go through two compounds from patent US7732617B2, “Tocopherol derivatives and uses thereof” (Brock University, priority 2007, dated 2010).

Data set [1] concerns the target T1, tocopherol hydroxylase activity in HepG2/C3A cultures (Homo sapiens, UniProt P78329).
T1 construct: Confluent cultures of the human heptoblastoma cell line, HepG2/C3A; endogenous in cells; host or cells: HepG2/C3A
T1 sequence (P78329 5-520): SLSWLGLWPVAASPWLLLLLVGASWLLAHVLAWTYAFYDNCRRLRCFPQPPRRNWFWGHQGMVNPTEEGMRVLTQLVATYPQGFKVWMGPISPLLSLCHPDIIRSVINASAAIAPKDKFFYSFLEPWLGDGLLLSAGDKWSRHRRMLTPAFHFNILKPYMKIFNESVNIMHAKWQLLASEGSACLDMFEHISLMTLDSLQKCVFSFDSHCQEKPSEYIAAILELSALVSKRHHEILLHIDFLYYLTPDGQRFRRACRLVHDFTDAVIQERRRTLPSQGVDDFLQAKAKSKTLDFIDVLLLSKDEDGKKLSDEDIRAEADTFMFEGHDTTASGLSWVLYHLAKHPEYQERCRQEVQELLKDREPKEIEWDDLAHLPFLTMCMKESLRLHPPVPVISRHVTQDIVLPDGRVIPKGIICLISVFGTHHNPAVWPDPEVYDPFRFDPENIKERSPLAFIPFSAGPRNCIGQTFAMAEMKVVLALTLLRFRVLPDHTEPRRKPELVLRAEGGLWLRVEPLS
The experiment in a line: Metabolism of γ-tocopherol (ω-oxidation products by GC-MS) in HepG2/C3A hepatoblastoma cultures. It is filed as cell-based. The note with it: 48 hours; for pEC50: 4 hour pre-incubation, 25 μM γ-tocopherol as substrate, read-out: concentration required to inhibit tocopherol hydroxylase activity by 50% (EC50). The protocol: (§1) (R)-2-(9-(1H-1,2,4-triazol-1-yl)nonyl)-2,5,7,8-tetramethylchroman-6-ol and γ-tocopherol stock solutions were prepared in ethanol. Confluent cultures of the human heptoblastoma cell line, HepG2/C3A, were pre-incubated with varying concentrations of (R)-2-(9-(1H-1,2,4-triazol-1-yl)nonyl)-2,5,7,8-tetramethylchroman-6-ol or ethanol for 4 hours, followed by addition of 25 μM γ-tocopherol. After 48 hours, culture media was collected and analyzed for ω-oxidation products of γ-tocopherol (the 3′- and 5′-carboxychromanols) by GC-MS, using d9-3′-carboxyethylchromanol as internal standard (Sontag T J et al. (2002) J Biol Chem 277: 25290-25296).
The effect of the triazole compounds were tested in human hepatoblastoma cell culture as described in Example 1, i.e. using 25 μM γ-tocopherol as substrate and 4 hour pre-incubation with the synthetic inhibitors.

The next data set concerns tocopherol hydroxylase. The experiment in a line: Tissue enrichment in δ-tocopherol in mice in vivo (diet feeding, GC-MS). The note with it: 10 days. The protocol: Two groups of mice (n=3) were fed a chow diet enriched with δ-tocopherol (6000 mg per kg diet), with or without 500 mg per kg (R)-2-(9-(1H-1,2,4-triazol-1-yl)nonyl)-2,5,7,8-tetramethylchroman-6-ol. After 10 days on diet, mice were fasted for 5 hrs, euthanized, and tocopherol concentrations determined in plasma, liver and bile, using GC-MS procedures and d9-3′-carboxyethylchromanol as internal standard (Sontag T J et al.).
Therefore data shown in FIG. 2 are presented as the δ-tocopherol/α-tocopherol ratio, where an increase in the ratio reflects enrichment in δ-tocopherol relative to α-tocopherol.

The test system of the next data set is HepG2/C3A. Briefly: Cell protein and monolayer morphology of HepG2/C3A cultures. The note with it: 48 hours. It is filed as cell-based, human. The procedure:
as §1
There was no effect of (R)-2-(9-(1H-1,2,4-triazol-1-yl)nonyl)-2,5,7,8-tetramethylchroman-6-ol on cell protein and all monolayers appeared normal in morphology.

[2] abbreviates: 500 mg per kg diet with δ-tocopherol 6000 mg per kg diet, versus control, P<0.05.

SMILES strings stand for the structures. pEC50: −log10 of the molar value.

In the case of `Cc1c(C)c2c(c(C)c1O)CC[C@@](C)(CCCCCCCCCn1ccnc1)O2` [(R)-2-(9-(1H-imidazol-1-yl)nonyl)-2,5,7,8-tetramethylchroman-6-ol], the pEC50 in data set [1] is 8.70 to 9.00. The “δ-tocopherol/α-tocopherol ratio in bile” value in the data set on tocopherol hydroxylase (setting [2]) was “tripled”.
As for `Cc1c(C)c2c(c(C)c1O)CC[C@@](C)(CCCCCCCCCn1cncn1)O2` [(R)-2-(9-(1H-1,2,4-triazol-1-yl)nonyl)-2,5,7,8-tetramethylchroman-6-ol], in data set [1], the pEC50 was roughly 9.00. Moreover, the Tocopherol hydroxylase activity entry in data set [1] (at compound concentrations above 10 nM, 25 μM γ-tocopherol) is given as “completely abolished”. Also, in the data set with HepG2/C3A, the “effect on cell protein” value was “no effect” and the morphology of monolayers result is given as “normal”. Besides, the “δ-tocopherol/α-tocopherol ratio in mouse liver” value in the data set with tocopherol hydroxylase (setting [2]) was “doubling”. Besides, in the data set on tocopherol hydroxylase (mice, 500 mg per kg diet), the α-tocopherol status result was “no evidence that α-tocopherol status was affected”.
